Assay results reported in ChEMBL document CHEMBL1681685, “A novel class of dual mPGES-1/5-LO inhibitors based on the α-naphthyl pirinixic acid scaffold” (Bioorg Med Chem Lett, 2011).
Active and inactive are the calls of the source. The rule behind the calls is not given here.

Tests used:
[1] = biological target: T1, Polyunsaturated fatty acid 5-lipoxygenase (Homo sapiens, UniProt P09917); assay: Inhibition of 5-lipoxygenase in human PMNL
T1 sequence (P09917 whole entry): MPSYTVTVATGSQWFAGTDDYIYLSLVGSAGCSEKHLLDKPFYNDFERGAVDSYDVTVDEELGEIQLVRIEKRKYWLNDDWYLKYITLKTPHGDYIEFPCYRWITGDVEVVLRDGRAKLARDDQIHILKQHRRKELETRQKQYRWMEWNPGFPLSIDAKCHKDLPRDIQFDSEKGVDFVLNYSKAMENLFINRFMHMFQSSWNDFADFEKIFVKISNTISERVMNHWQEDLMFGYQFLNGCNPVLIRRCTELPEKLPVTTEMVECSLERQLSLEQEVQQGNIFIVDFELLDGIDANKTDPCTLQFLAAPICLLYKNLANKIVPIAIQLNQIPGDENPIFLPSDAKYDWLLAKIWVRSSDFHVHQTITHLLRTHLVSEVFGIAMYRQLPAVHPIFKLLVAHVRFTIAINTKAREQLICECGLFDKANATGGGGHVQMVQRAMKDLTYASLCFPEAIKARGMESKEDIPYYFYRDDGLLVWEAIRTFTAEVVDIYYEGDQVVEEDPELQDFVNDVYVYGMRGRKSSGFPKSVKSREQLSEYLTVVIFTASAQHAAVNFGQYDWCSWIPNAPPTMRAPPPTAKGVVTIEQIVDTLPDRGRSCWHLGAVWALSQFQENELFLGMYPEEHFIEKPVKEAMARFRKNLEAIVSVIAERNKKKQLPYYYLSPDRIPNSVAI

[2] = biological target: T2, Polyunsaturated fatty acid 5-lipoxygenase (Homo sapiens) (UniProt P09917); assay: Inhibition of human recombinant 5-lipoxygenase assessed as remaining activity at 10 uM
T2 sequence (whole entry): T1 sequence (P09917 whole entry)

[3] = biological target: T3, Prostaglandin E synthase (Homo sapiens) (UniProt O14684); assay: Inhibition of mPGES-1 expressed in IL-1beta-stimulated human A549 cells mitochondrial fraction assessed as remaining activity at 10 uM
T3 sequence (whole entry): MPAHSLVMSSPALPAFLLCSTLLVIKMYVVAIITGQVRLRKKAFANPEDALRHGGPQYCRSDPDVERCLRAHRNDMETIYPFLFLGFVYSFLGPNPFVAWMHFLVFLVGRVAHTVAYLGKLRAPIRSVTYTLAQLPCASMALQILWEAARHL

[4] = biological target: T4, Prostaglandin E synthase (Homo sapiens, UniProt O14684); assay: Inhibition of mPGES-1 expressed in […]-stimulated human A549 cells mitochondrial fraction assessed as conversion of PGH2 to PGE2; format: cell-based
T4 sequence (O14684 whole entry): T3 sequence (whole entry)

[5] = biological target: T1, Polyunsaturated fatty acid 5-lipoxygenase; assay: Inhibition of human recombinant 5-lipoxygenase
[6] = biological target: T3, Prostaglandin E synthase (Homo sapiens); assay: Inhibition of mPGES-1 expressed in […]-stimulated human A549 cells mitochondrial fraction assessed as remaining activity at 10 uM; format: cell-based
[7] = biological target: T2, Polyunsaturated fatty acid 5-lipoxygenase (Homo sapiens); assay: Inhibition of 5-lipoxygenase in human PMNL assessed as remaining activity at 10 uM

| SMILES | IC50 [1] | Activity [2] | Activity [3] | IC50 [4] | IC50 [5] | Activity [6] | Activity [7] |
| --- | --- | --- | --- | --- | --- | --- | --- |
| CCCCNc1cc(Cl)nc(SC(C(=O)O)c2cccc3ccccc23)n1 (centres undefined) | 2.4 µM | 70.6% | 90.2% |  |  |  |  |
| O=C(O)C(Sc1nc(Cl)cc(Nc2ccc3ncccc3c2)n1)c1cccc2ccccc12 (centres undefined) | 4.4 µM | 19% | 49.1% |  |  |  |  |
| O=C(O)C(Sc1nc(Cl)cc(Nc2ccc(Cl)cc2)n1)c1cccc2ccccc12 (centres undefined) | 0.8 µM |  |  | 5.1 µM | 8.9 µM |  |  |
| CC(C)CNc1cc(Cl)nc(SC(C(=O)O)c2cccc3ccccc23)n1 (centres undefined) | 2.5 µM | 54.8% |  |  |  | 65.3% |  |
| Cc1cccc(Nc2cc(Cl)nc(SCC(=O)O)n2)c1C |  | inactive | inactive |  |  |  | inactive |
| O=C(O)C(Sc1nc(Cl)cc(NCc2ccc(-c3ccccc3)cc2)n1)c1cccc2ccccc12 (centres undefined) | 0.7 µM |  |  | 0.88 µM | 3 µM |  |  |
| O=C(O)C(Sc1nc(Cl)cc(Nc2cccc(Cl)c2)n1)c1cccc2ccccc12 (centres undefined) | 0.7 µM |  | 45.5% |  | 5 µM |  |  |
| O=C(O)C(Sc1nc(Cl)cc(NCCCc2ccccc2)n1)c1cccc2ccccc12 (centres undefined) | 1.8 µM | 68.9% |  | 6.1 µM |  |  |  |
| O=C(O)C(Sc1nc(Cl)cc(NCCc2ccccc2)n1)c1cccc2ccccc12 (centres undefined) | 2.5 µM | 44.2% | 42.3% |  |  |  |  |
| O=C(O)C(Sc1nc(Cl)cc(Nc2ccc(F)cc2)n1)c1cccc2ccccc12 (centres undefined) | 3.1 µM | 67.3% | 49.9% |  |  |  |  |

Now from value to molecule:

| IC50 [1] | Activity [2] | Activity [3] | IC50 [4] | IC50 [5] | Activity [6] | Activity [7] | SMILES |
| --- | --- | --- | --- | --- | --- | --- | --- |
| 0.7 µM |  |  | 5.7 µM | 8.5 µM |  |  | Cc1ccc(Nc2cc(Cl)nc(SC(C(=O)O)c3cccc4ccccc34)n2)cc1C (centres undefined) |
| 0.5 µM |  |  | 1.9 µM | 2.9 µM |  |  | O=C(O)C(Sc1nc(Cl)cc(Nc2ccc3ccccc3c2)n1)c1cccc2ccccc12 (centres undefined) |
| 0.26 µM |  | 35.8% |  | 5.8 µM |  |  | CC(C)c1ccc(Nc2cc(Cl)nc(SC(C(=O)O)c3cccc4ccccc34)n2)cc1 (centres undefined) |
| 0.5 µM |  | 36.7% |  | 4.2 µM |  |  | O=C(O)C(Sc1nc(Cl)cc(Nc2ccc3c(c2)CCC3)n1)c1cccc2ccccc12 (centres undefined) |
| 0.26 µM |  |  | 0.9 µM | 1.9 µM |  |  | CC(C)(C)c1cc(Nc2cc(Cl)nc(SC(C(=O)O)c3cccc4ccccc34)n2)cc(C(C)(C)C)c1 (centres undefined) |
| 0.3 µM |  |  | 1.5 µM | 2.2 µM |  |  | O=C(O)C(Sc1nc(Cl)cc(Nc2ccc(Cc3ccccc3)cc2)n1)c1cccc2ccccc12 (centres undefined) |
| 0.24 µM |  |  | 1.55 µM | 1.6 µM |  |  | O=C(O)C(Sc1nc(Cl)cc(Nc2ccc3c(c2)Cc2ccccc2-3)n1)c1cccc2ccccc12 (centres undefined) |
| 0.6 µM |  | 38.8% |  | 5.2 µM |  |  | O=C(Nc1ccc(Nc2cc(Cl)nc(SC(C(=O)O)c3cccc4ccccc34)n2)cc1)c1ccccc1 (centres undefined) |
| 0.1 µM |  |  | 0.94 µM | 2.3 µM |  |  | O=C(O)C(Sc1nc(Cl)cc(Nc2ccc(-c3ccccc3)cc2)n1)c1cccc2ccccc12 (centres undefined) |
| 0.17 µM |  |  | 1.6 µM | 2.3 µM |  |  | N#Cc1ccc(-c2ccc(Nc3cc(Cl)nc(SC(C(=O)O)c4cccc5ccccc45)n3)cc2)cc1 (centres undefined) |
| 0.4 µM |  |  | 0.94 µM | 3.1 µM |  |  | O=C(O)C(Sc1nc(Cl)cc(Nc2ccc(Oc3ccccc3)cc2)n1)c1cccc2ccccc12 (centres undefined) |
| 0.5 µM |  |  | 1.9 µM | 5 µM |  |  | O=C(O)C(Sc1nc(Cl)cc(Nc2cccc(-c3ccccc3)c2)n1)c1cccc2ccccc12 (centres undefined) |
| 0.4 µM |  |  | 1.45 µM | 2 µM |  |  | O=C(O)C(Sc1nc(Cl)cc(Nc2ccc(C3CCCCC3)cc2)n1)c1cccc2ccccc12 (centres undefined) |
